According to patent US20250122219A1 (priority 2023, published 2025):

Legend:
HIV-1 (IIIB) = assay: Antiviral assay in MT-4 cells; assay type: cell-based; details: Human immunodeficiency virus 1, MT4, 120 h; HIV-1 IIIB in MT-4 cells, 5 days incubation, Cell Titer Glo; read-out: MT4 EC50
Method in brief: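 HIV-1 IIIB-infected MT-4 cells (fresh 1:250 virus stock dilution; mock-infected controls) incubated 5 days at 37 °C with serially diluted compounds in RPMI/10% FBS; 5 μM AZT as positive control. Cell viability read by CellTiter-Glo luminescence as measure of protection from viral replication.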

[1] = Cytotoxicity assay in MT-4 cells; assay type: cell-based; details: human; uninfected MT-4 cells, 5 days incubation, Cell Titer Glo; read-out: MT4 CC50
Method in brief: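 Uninfected MT-4 cells exposed to serially diluted compounds in RPMI with 10% FBS for 5 days at 37 °C. Viability by Cell Titer Glo chemiluminescence. Puromycin […] as baseline cytotoxicity control.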

SMILES | EC50 (HIV-1 (IIIB)) [nM] | CC50 at 5 days [1] [nM]
CC1=NO[C@@]2(CC[C@H](C)N3C[C@H]2n2cc(C(=O)NCc4ccc(F)cc4F)c(=O)c(OCOC(=O)CC(C)C)c2C3=O)C1 [Example 111, (((3′S,5S,7′R)-10′-((2,4-difluorobenzyl)carbamoyl)-3,3′-dimethyl-1′,11′-dioxo-1′,4′,5′,11′-tetrahydro-3′H,4H,7′H-spiro[isoxazole-5,6′-[2,7]methanopyrido[1,2-a][1,4]diazonin]-12′-yl)oxy)methyl 3-methylbutanoate] | 1.95 | 13800
CCCCCCOC(=O)OCOc1c2n(cc(C(=O)NCc3ccc(F)cc3F)c1=O)[C@@H]1CN(C2=O)[C@@H](C)CC[C@]12CC(C)=NO2 [Example 181, (((3′S,5S,7′R)-10′-((2,4-difluorobenzyl)carbamoyl)-3,3′-dimethyl-1′,11′-dioxo-1′,4′,5′,11′-tetrahydro-3′H,4H,7′H-spiro[isoxazole-5,6′-[2,7]methanopyrido[1,2-a][1,4]diazonin]-12′-yl)oxy)methyl hexyl carbonate] | 0.262 | 14700
CCCCCOC(=O)Oc1c2n(cc(C(=O)NCc3ccc(F)cc3F)c1=O)[C@@H]1CN(C2=O)[C@@H](C)CC[C@]12CC(OC)=NO2 [Example 130, (3′S,5S,7′R)-10′-((2,4-difluorobenzyl)carbamoyl)-3-methoxy-3′-methyl-1′,11′-dioxo-1′,4′,5′,11′-tetrahydro-3′H,4H,7′H-spiro[isoxazole-5,6′-[2,7]methanopyrido[1,2-a][1,4]diazonin]-12′-yl pentyl carbonate] | 1.83 | 31700
CCCCCCCCC(=O)Oc1c2n(cc(C(=O)NCc3ccc(F)cc3F)c1=O)[C@@H]1CN(C2=O)[C@@H](C)CC[C@]12CC(OC)=NO2 [Example 42, (3′S,5S,7′R)-10′-((2,4-difluorobenzyl)carbamoyl)-3-methoxy-3′-methyl-1′,11′-dioxo-1′,4′,5′,11′-tetrahydro-3′H,4H,7′H-spiro[isoxazole-5,6′-[2,7]methanopyrido[1,2-a][1,4]diazonin]-12′-yl nonanoate] | 1.94 | 40600
CCCCCCCCCCCCCC(=O)Oc1c2n(cc(C(=O)NCc3ccc(F)cc3F)c1=O)[C@@H]1CN(C2=O)[C@@H](C)CC[C@]12CC(OC)=NO2 [Example 26, (3′S,5S,7′R)-10′-((2,4-difluorobenzyl)carbamoyl)-3-methoxy-3′-methyl-1′,11′-dioxo-1′,4′,5′,11′-tetrahydro-3′H,4H,7′H-spiro[isoxazole-5,6′-[2,7]methanopyrido[1,2-a][1,4]diazonin]-12′-yl tetradecanoate] | 2.62 | 22600
CCCCCCCCCCCC(=O)OCOc1c2n(cc(C(=O)NCc3ccc(F)cc3F)c1=O)[C@@H]1CN(C2=O)[C@@H](C)CC[C@]12CC(C)=NO2 [Example 102, (((3′S,5S,7′R)-10′-((2,4-difluorobenzyl)carbamoyl)-3,3′-dimethyl-1′,11′-dioxo-1′,4′,5′,11′-tetrahydro-3′H,4H,7′H-spiro[isoxazole-5,6′-[2,7]methanopyrido[1,2-a][1,4]diazonin]-12′-yl)oxy)methyl dodecanoate] | 4.96 | ≥ 50000
CCCCOC(=O)OCOc1c2n(cc(C(=O)NCc3ccc(F)cc3F)c1=O)[C@@H]1CN(C2=O)[C@@H](C)CC[C@]12CC(OC)=NO2 [Example 177, butyl ((((3′S,5S,7′R)-10′-((2,4-difluorobenzyl)carbamoyl)-3-methoxy-3′-methyl-1′,11′-dioxo-1′,4′,5′,11′-tetrahydro-3′H,4H,7′H-spiro[isoxazole-5,6′-[2,7]methanopyrido[1,2-a][1,4]diazonin]-12′-yl)oxy)methyl) carbonate] | 0.366 | 23900
COC(=O)N[C@H](C(=O)Oc1c2n(cc(C(=O)NCc3ccc(F)cc3F)c1=O)[C@@H]1CN(C2=O)[C@@H](C)CC[C@]12CC(C)=NO2)C(C)C [Example 81] | 1.44 | 18100
COC1=NO[C@@]2(CC[C@H](C)N3C[C@H]2n2cc(C(=O)NCc4ccc(F)cc4F)c(=O)c(OC(=O)CCCCCC(C)C)c2C3=O)C1 [Example 64, (3′S,5S,7′R)-10′-((2,4-difluorobenzyl)carbamoyl)-3-methoxy-3′-methyl-1′,11′-dioxo-1′,4′,5′,11′-tetrahydro-3′H,4H,7′H-spiro[isoxazole-5,6′-[2,7]methanopyrido[1,2-a][1,4]diazonin]-12′-yl 7-methyloctanoate] | 2.48 | 38100
COC1=NO[C@@]2(CC[C@H](C)N3C[C@H]2n2cc(C(=O)NCc4ccc(F)cc4F)c(=O)c(OC(=O)CCCCCCCCCCCCCCCCC(=O)O)c2C3=O)C1 [Example 77, 18-(((3′S,5S,7′R)-10′-((2,4-difluorobenzyl)carbamoyl)-3-methoxy-3′-methyl-1′,11′-dioxo-1′,4′,5′,11′-tetrahydro-3′H,4H,7′H-spiro[isoxazole-5,6′-[2,7]methanopyrido[1,2-a][1,4]diazonin]-12′-yl)oxy)-18-oxooctadecanoic acid] | 0.658 | ≥ 50000
CCCCCCCCCCOC(=O)Oc1c2n(cc(C(=O)NCc3ccc(F)cc3F)c1=O)[C@@H]1CN(C2=O)[C@@H](C)CC[C@]12CC(C)=NO2 [Example 139, decyl ((3′S,5S,7′R)-10′-((2,4-difluorobenzyl)carbamoyl)-3,3′-dimethyl-1′,11′-dioxo-1′,4′,5′,11′-tetrahydro-3′H,4H,7′H-spiro[isoxazole-5,6′-[2,7]methanopyrido[1,2-a][1,4]diazonin]-12′-yl) carbonate] | 0.995 | 13200
CC1=NO[C@@]2(CC[C@H](C)N3C[C@H]2n2cc(C(=O)NCc4ccc(F)cc4F)c(=O)c(OCOC(=O)OCCC(C)C)c2C3=O)C1 [Example 201, (((3′S,5S,7′R)-10′-((2,4-difluorobenzyl)carbamoyl)-3,3′-dimethyl-1′,11′-dioxo-1′,4′,5′,11′-tetrahydro-3′H,4H,7′H-spiro[isoxazole-5,6′-[2,7]methanopyrido[1,2-a][1,4]diazonin]-12′-yl)oxy)methyl isopentyl carbonate] | 4.47 | 16900
CCCOC(=O)OCOc1c2n(cc(C(=O)NCc3ccc(F)cc3F)c1=O)[C@@H]1CN(C2=O)[C@@H](C)CC[C@]12CC(C)=NO2 [Example 174, (((3′S,5S,7′R)-10′-((2,4-difluorobenzyl)carbamoyl)-3,3′-dimethyl-1′,11′-dioxo-1′,4′,5′,11′-tetrahydro-3′H,4H,7′H-spiro[isoxazole-5,6′-[2,7]methanopyrido[1,2-a][1,4]diazonin]-12′-yl)oxy)methyl propyl carbonate] | 2.4 | 18100
CCCCCC(=O)Oc1c2n(cc(C(=O)NCc3ccc(F)cc3F)c1=O)[C@@H]1CN(C2=O)[C@@H](C)CC[C@]12CC(C)=NO2 [Example 37, (3′S,5S,7′R)-10′-((2,4-difluorobenzyl)carbamoyl)-3,3′-dimethyl-1′,11′-dioxo-1′,4′,5′,11′-tetrahydro-3′H,4H,7′H-spiro[isoxazole-5,6′-[2,7]methanopyrido[1,2-a][1,4]diazonin]-12′-yl hexanoate] | 0.403 | 17400
CCCCCCCCOC(=O)Oc1c2n(cc(C(=O)NCc3ccc(F)cc3F)c1=O)[C@@H]1CN(C2=O)[C@@H](C)CC[C@]12CC(C)=NO2 [Example 135, (3′S,5S,7′R)-10′-((2,4-difluorobenzyl)carbamoyl)-3,3′-dimethyl-1′,11′-dioxo-1′,4′,5′,11′-tetrahydro-3′H,4H,7′H-spiro[isoxazole-5,6′-[2,7]methanopyrido[1,2-a][1,4]diazonin]-12′-yl octyl carbonate] | 0.409 | 14200
CCCCCCCCCC(=O)Oc1c2n(cc(C(=O)NCc3ccc(F)cc3F)c1=O)[C@@H]1CN(C2=O)[C@@H](C)CC[C@]12CC(C)=NO2 [Example 45, (3′S,5S,7′R)-10′-((2,4-difluorobenzyl)carbamoyl)-3,3′-dimethyl-1′,11′-dioxo-1′,4′,5′,11′-tetrahydro-3′H,4H,7′H-spiro[isoxazole-5,6′-[2,7]methanopyrido[1,2-a][1,4]diazonin]-12′-yl decanoate] | 0.373 | 22200
CCCC(=O)Oc1c2n(cc(C(=O)NCc3ccc(F)cc3F)c1=O)[C@@H]1CN(C2=O)[C@@H](C)CC[C@]12CC(OC)=NO2 [Example 34, (3′S,5S,7′R)-10′-((2,4-difluorobenzyl)carbamoyl)-3-methoxy-3′-methyl-1′,11′-dioxo-1′,4′,5′,11′-tetrahydro-3′H,4H,7′H-spiro[isoxazole-5,6′-[2,7]methanopyrido[1,2-a][1,4]diazonin]-12′-yl butyrate] | 0.218 | 16300
CCCCOC(=O)OCOc1c2n(cc(C(=O)NCc3ccc(F)cc3F)c1=O)[C@@H]1CN(C2=O)[C@@H](C)CC[C@]12CC(C)=NO2 [Example 176, butyl ((((3′S,5S,7′R)-10′-((2,4-difluorobenzyl)carbamoyl)-3,3′-dimethyl-1′,11′-dioxo-1′,4′,5′,11′-tetrahydro-3′H,4H,7′H-spiro[isoxazole-5,6′-[2,7]methanopyrido[1,2-a][1,4]diazonin]-12′-yl)oxy)methyl) carbonate] | 0.284 | 23000
COC1=NO[C@@]2(CC[C@H](C)N3C[C@H]2n2cc(C(=O)NCc4ccc(F)cc4F)c(=O)c(OC(=O)CCC4CCCC4)c2C3=O)C1 [Example 58, (3′S,5S,7′R)-10′-((2,4-difluorobenzyl)carbamoyl)-3-methoxy-3′-methyl-1′,11′-dioxo-1′,4′,5′,11′-tetrahydro-3′H,4H,7′H-spiro[isoxazole-5,6′-[2,7]methanopyrido[1,2-a][1,4]diazonin]-12′-yl 3-cyclopentylpropanoate] | 0.284 | 23900
